PMC9151804, “Carotenoid binding in Gloeobacteria rhodopsin provides insights into divergent evolution of xanthorhodopsin types” (Communications Biology, 2022)

Legend:
Assay in all cases: co-expression in E. coli, purification, chromophore extraction and absorbance
Type in all cases: binding
Conditions in all cases: all-trans-retinal-bound protein; 0.02% DDM, 150 mM NaCl, 50 mM Tris, pH 7.0
[1] = biological target: T1, Gloeobacter rhodopsin (GR) (Gloeobacter violaceus, UniProt Q7NP59)
T1 construct: gene gll0198
T1 sequence (Q7NP59 1-298): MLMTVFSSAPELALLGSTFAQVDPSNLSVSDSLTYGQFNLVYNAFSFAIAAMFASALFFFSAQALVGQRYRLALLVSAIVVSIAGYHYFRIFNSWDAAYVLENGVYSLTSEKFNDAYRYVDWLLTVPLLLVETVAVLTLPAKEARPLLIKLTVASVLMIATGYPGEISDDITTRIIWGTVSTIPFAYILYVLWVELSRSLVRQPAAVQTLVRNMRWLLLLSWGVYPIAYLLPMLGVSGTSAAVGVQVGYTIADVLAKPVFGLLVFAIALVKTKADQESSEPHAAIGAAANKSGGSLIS

[2] = biological target: T2, Gloeobacter rhodopsin (GR) (Gloeobacter violaceus, UniProt Q7NP59, P226G)
T2 construct: gene gll0198
T2 sequence (Q7NP59 entry or part of it P226G): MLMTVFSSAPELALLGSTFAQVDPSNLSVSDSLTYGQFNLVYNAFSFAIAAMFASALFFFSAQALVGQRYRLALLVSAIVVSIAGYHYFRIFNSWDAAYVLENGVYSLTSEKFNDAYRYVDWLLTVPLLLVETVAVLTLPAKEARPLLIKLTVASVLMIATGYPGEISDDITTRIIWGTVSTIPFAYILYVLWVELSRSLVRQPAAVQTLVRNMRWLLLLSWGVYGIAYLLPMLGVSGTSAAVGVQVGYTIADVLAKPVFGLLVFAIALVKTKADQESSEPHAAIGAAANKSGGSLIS

[3] = biological target: T3, Gloeobacter rhodopsin (GR) (Gloeobacter violaceus, UniProt Q7NP59, G178W)
T3 construct: gene gll0198
T3 sequence (Q7NP59 entry or part of it G178W): as the sequence (Q7NP59 entry or part of it P226G) above, with G178W, G226P counted along it

[4] = biological target: T4, Gloeobacter rhodopsin (GR) (Gloeobacter violaceus, UniProt Q7NP59, T179G/T182G/F185G)
T4 construct: gene gll0198
T4 sequence (Q7NP59 entry or part of it T179G/T182G/F185G): as the sequence (Q7NP59 entry or part of it P226G) above, with T179G, T182G, F185G, G226P counted along it

[5] = biological target: T5, Gloeobacter rhodopsin (GR) (Gloeobacter violaceus, UniProt Q7NP59, T179G)
T5 construct: gene gll0198
T5 sequence (Q7NP59 entry or part of it T179G): as the sequence (Q7NP59 entry or part of it P226G) above, with T179G, G226P counted along it

[6] = biological target: T6, Gloeobacter rhodopsin (GR) (Gloeobacter violaceus, UniProt Q7NP59, T179G/T182G)
T6 construct: gene gll0198
T6 sequence (Q7NP59 entry or part of it T179G/T182G): as the sequence (Q7NP59 entry or part of it P226G) above, with T179G, T182G, G226P counted along it

[7] = biological target: T7, Gloeobacter rhodopsin (GR) (Gloeobacter violaceus, UniProt Q7NP59, I227G)
T7 construct: gene gll0198
T7 sequence (Q7NP59 entry or part of it I227G): as the sequence (Q7NP59 entry or part of it P226G) above, with G226P, I227G counted along it

[8] = biological target: T8, Gloeobacter rhodopsin (GR) (Gloeobacter violaceus, UniProt Q7NP59, S221G)
T8 construct: gene gll0198
T8 sequence (Q7NP59 entry or part of it S221G): as the sequence (Q7NP59 entry or part of it P226G) above, with S221G, G226P counted along it

[9] = biological target: T9, Gloeobacter rhodopsin (GR) (Gloeobacter violaceus, UniProt Q7NP59, S181G)
T9 construct: gene gll0198
T9 sequence (Q7NP59 entry or part of it S181G): as the sequence (Q7NP59 entry or part of it P226G) above, with S181G, G226P counted along it

[10] = biological target: T10, Gloeobacter rhodopsin (GR) (Gloeobacter violaceus, UniProt Q7NP59, F185G)
T10 construct: gene gll0198
T10 sequence (Q7NP59 entry or part of it F185G): as the sequence (Q7NP59 entry or part of it P226G) above, with F185G, G226P counted along it

[11] = biological target: T11, Gloeobacter rhodopsin (GR) (Gloeobacter violaceus, UniProt Q7NP59, P226G/I227G)
T11 construct: gene gll0198
T11 sequence (Q7NP59 entry or part of it P226G/I227G): as the sequence (Q7NP59 entry or part of it P226G) above, with I227G counted along it

carotenoid/retinal binding ratio [1]: ~ 87%
carotenoid/retinal binding ratio [2]: ~ 48%
carotenoid/retinal binding ratio [4]: ~ 5%
carotenoid/retinal binding ratio [5]: ~ 41%
carotenoid/retinal binding ratio [6]: ~ 19%
carotenoid/retinal binding ratio [7]: ~ 42%
carotenoid/retinal binding ratio [8]: ~ 69%
carotenoid/retinal binding ratio [10]: ~ 37%
carotenoid/retinal binding ratio [11]: ~ 29%
SMILES: CC1=C(/C=C/C(C)=C/C=C/C(C)=C/C=C/C=C(C)/C=C/C=C(C)/C=C/C2=C(C)C(=O)CCC2(C)C)C(C)(C)CCC1=O [canthaxanthin]
carotenoid binding [3]: with retinal and carotenoid showed no carotenoid binding in the absorption spectrum
carotenoid/retinal binding ratio [9]: All mutants critical affect the carotenoid binding but not S181G
